# Assay results taken from patent publication US8372967B2, “Compounds and methods for modulating expression of GCCR” (Isis Pharmaceuticals, Inc., priority 2006, dated 2013).
# Strand notation (5' to 3'): a small letter for the sugar, then the base; units joined by * are phosphorothioate-linked, units joined directly phosphodiester-linked; [ ] holds rarer units or linkages, { } end groups; capitals alone tell only the bases. e = 2'-O-(2-methoxyethyl) (MOE); [5mC] = 5-methylcytosine; d = 2'-deoxy (DNA)
# System: PCSK9 mRNA
# Experiment: Dose-dependent antisense inhibition of PCSK9 in Hep3B cells, EC50 (Table 76)
# Assay type: cell-based, human
# Conditions: 5 nM
# Method: (§1) When cells reached appropriate confluency, they were treated with oligonucleotide using LIPOFECTIN® as described. […] Cells were treated and data were obtained in duplicate or triplicate. […] Cells were harvested 16-24 hours after oligonucleotide treatment.
# Short antisense compounds targeted to a PCSK9 nucleic acid were tested in a dose response experiment Hep3B cells. After the treatment period, RNA was isolated from the cells and PCSK9 mRNA levels were measured by quantitative real-time PCR, as described herein. PCSK9 mRNA levels were normalized to cyclophilin mRNA levels, as measured by real-time PCR using a cyclophilin-specific primer probe set. Results are presented as percent inhibition of PCSK9, relative to untreated control cells. […] As illustrated in the following table, PCSK9 mRNA levels were reduced in a dose-dependent manner.
row,Substance,% Inhibition
1,400307 (antisense e[5mC]*eG*dG*d[5mC]*d[5mC]*dG*d[5mC]*dT*dG*dA*d[5mC]*d[5mC]*eA*e[5mC]) [compound 400307],35%
2,400308 (antisense e[5mC]*e[5mC]*dG*dG*d[5mC]*d[5mC]*dG*d[5mC]*dT*dG*dA*d[5mC]*e[5mC]*eA) [compound 400308],31%
3,400309 (antisense e[5mC]*e[5mC]*d[5mC]*dG*dG*d[5mC]*d[5mC]*dG*d[5mC]*dT*dG*dA*e[5mC]*e[5mC]) [compound 400309],49%

# Same assay, conditions: 10 nM
row,Substance,% Inhibition
1,400307 (antisense e[5mC]*eG*dG*d[5mC]*d[5mC]*dG*d[5mC]*dT*dG*dA*d[5mC]*d[5mC]*eA*e[5mC]) [compound 400307],39%
2,400308 (antisense e[5mC]*e[5mC]*dG*dG*d[5mC]*d[5mC]*dG*d[5mC]*dT*dG*dA*d[5mC]*e[5mC]*eA) [compound 400308],10%
3,400309 (antisense e[5mC]*e[5mC]*d[5mC]*dG*dG*d[5mC]*d[5mC]*dG*d[5mC]*dT*dG*dA*e[5mC]*e[5mC]) [compound 400309],23%

# Same assay, conditions: 20 nM
row,Substance,% Inhibition
1,400307 (antisense e[5mC]*eG*dG*d[5mC]*d[5mC]*dG*d[5mC]*dT*dG*dA*d[5mC]*d[5mC]*eA*e[5mC]) [compound 400307],45%
2,400308 (antisense e[5mC]*e[5mC]*dG*dG*d[5mC]*d[5mC]*dG*d[5mC]*dT*dG*dA*d[5mC]*e[5mC]*eA) [compound 400308],26%
3,400309 (antisense e[5mC]*e[5mC]*d[5mC]*dG*dG*d[5mC]*d[5mC]*dG*d[5mC]*dT*dG*dA*e[5mC]*e[5mC]) [compound 400309],38%

# Same assay, conditions: 40 nM
row,Substance,% Inhibition
1,400307 (antisense e[5mC]*eG*dG*d[5mC]*d[5mC]*dG*d[5mC]*dT*dG*dA*d[5mC]*d[5mC]*eA*e[5mC]) [compound 400307],56%
2,400308 (antisense e[5mC]*e[5mC]*dG*dG*d[5mC]*d[5mC]*dG*d[5mC]*dT*dG*dA*d[5mC]*e[5mC]*eA) [compound 400308],40%
3,400309 (antisense e[5mC]*e[5mC]*d[5mC]*dG*dG*d[5mC]*d[5mC]*dG*d[5mC]*dT*dG*dA*e[5mC]*e[5mC]) [compound 400309],12%

# Same assay, conditions: 80 nM
row,Substance,% Inhibition
1,400307 (antisense e[5mC]*eG*dG*d[5mC]*d[5mC]*dG*d[5mC]*dT*dG*dA*d[5mC]*d[5mC]*eA*e[5mC]) [compound 400307],92%
2,400308 (antisense e[5mC]*e[5mC]*dG*dG*d[5mC]*d[5mC]*dG*d[5mC]*dT*dG*dA*d[5mC]*e[5mC]*eA) [compound 400308],77%
3,400309 (antisense e[5mC]*e[5mC]*d[5mC]*dG*dG*d[5mC]*d[5mC]*dG*d[5mC]*dT*dG*dA*e[5mC]*e[5mC]) [compound 400309],72%

# Same assay, conditions: 160 nM
row,Substance,% Inhibition
1,400307 (antisense e[5mC]*eG*dG*d[5mC]*d[5mC]*dG*d[5mC]*dT*dG*dA*d[5mC]*d[5mC]*eA*e[5mC]) [compound 400307],93%
2,400308 (antisense e[5mC]*e[5mC]*dG*dG*d[5mC]*d[5mC]*dG*d[5mC]*dT*dG*dA*d[5mC]*e[5mC]*eA) [compound 400308],86%
3,400309 (antisense e[5mC]*e[5mC]*d[5mC]*dG*dG*d[5mC]*d[5mC]*dG*d[5mC]*dT*dG*dA*e[5mC]*e[5mC]) [compound 400309],78%

# System: not listed separately
# Experiment: Triglyceride, cholesterol and glucose levels, pre-bleed and post-bleed, GCGR study (Table 34)
# Assay type: in vivo, mouse
# Conditions: C57/BL6 mice, 48 hours after single i.p. dose
# Method: Eight-week old male C57/BL6 mice (Jackson Laboratory, Bar Harbor, Me.) were administered a single dose of GCGR oligonucleotide by intraperitoneal injection at a concentration of […]. Each dose group consisted of four animals. Shown in Table 31 are the sequences, motifs and conjugates of the GCGR antisense compounds used in this study. Bolded residues indicate 2′-O-methoxyethyl (2′-MOE) moieties. All compounds comprise phosphorothioate internucleoside linkages throughout and each cytosine is replaced with 5-methylcytosine. ISIS 386626, ISIS 386627 and ISIS 386628 further comprise a C16 conjugate group attached to the 2′-O position of the sugar via a diamide linkage (2′-OCH2C(═O)N(H)(CH2)4N(H)C(═O)—(CH2)15CH3). GCGR antisense compounds target published GCGR sequences, including Genbank® Accession No. BC031885.1 (SEQ ID NO: 7).
# Mice were sacrificed 48 hours following injection to determine serum transaminase levels (Table 32); liver, white adipose tissue (WAT), spleen and kidney weight (Table 33); cholesterol, triglyceride and glucose levels (Table 34); GCGR mRNA levels (Tables 35-41); and full-length and total oligonucleotide concentration in liver and kidney (Table 42). Endpoints were assessed using methods described herein and well known to those of ordinary skill in the art. Data is included from a pre-treatment bleed (Pre-Bleed) and post-treatment bleed (Post-Bleed).
row,Substance,Glucose levels (post-bleed)
1,ISIS 386628: GCGR short antisense compound with C16 conjugate group at 2′-O via diamide linkage (TGTCTTGCTGCTTT; chemistry not fully specified),decrease in post-bleed glucose levels

# System: PCSK9 mRNA
# Experiment: not given
# Assay type: cell-based, human
# Conditions: Hep3B cells, 100 nM, relative to untreated control cells
# Method: as §1
# Prior to quantitative PCR analysis, primer-probe sets specific to the target gene being measured were evaluated for their ability to be “multiplexed” with a GAPDH amplification reaction. After isolation the RNA is subjected to sequential reverse transcriptase (RT) reaction and real-time PCR, both of which are performed in the same well. RT and PCR reagents were obtained from Invitrogen Life Technologies (Carlsbad, Calif.). […] The RT reaction was carried out by incubation for 30 minutes at 48° C. Following a 10 minute incubation at 95° C. to activate the PLATIN 9M® Taq, 40 cycles of a two-step PCR protocol were carried out: 95° C. for 15 seconds (denaturation) followed by 60° C. for 1.5 minutes (annealing/extension).
# 170 μL of RiboGreen® working reagent (RiboGreen® reagent diluted 1:350 in 10 mM Tris-HCl, 1 mM EDTA, pH 7.5) was pipetted into a 96-well plate containing 30 μL purified cellular RNA. The plate was read in a CytoFluor® 4000 (PE Applied Biosystems) with excitation at 485 nm and emission at 530 nm.
# Short antisense compounds targeted to a PCSK9 nucleic acid were tested for their effects on PCSK9 mRNA in vitro. The Isis No, gapmer motif and SEQ ID NO of each short antisense compound are shown again in Table 75. Cultured Hep3B cells were treated with 100 nM of short antisense compound. 5-10-5 MOE gapmers targeted to a PCSK9 nucleic acid were used as positive controls. After the treatment period, RNA was isolated from the cells and PCSK9 mRNA levels were measured by quantitative real-time PCR, as described herein. PCSK9 mRNA levels were adjusted according to total RNA content as measured by RIBOGREEN®. Results are presented in Table 75 as percent inhibition of PCSK9 (% Inhib), relative to untreated control cells.
row,Substance,% Inhibition Range
1,400307 (antisense e[5mC]*eG*dG*d[5mC]*d[5mC]*dG*d[5mC]*dT*dG*dA*d[5mC]*d[5mC]*eA*e[5mC]) [compound 400307],70-80%
2,400308 (antisense e[5mC]*e[5mC]*dG*dG*d[5mC]*d[5mC]*dG*d[5mC]*dT*dG*dA*d[5mC]*e[5mC]*eA) [compound 400308],50-60%
3,400309 (antisense e[5mC]*e[5mC]*d[5mC]*dG*dG*d[5mC]*d[5mC]*dG*d[5mC]*dT*dG*dA*e[5mC]*e[5mC]) [compound 400309],40-50%

# Same assay, conditions: Hep3B cells, 100 nM, relative to untreated control cells, 0 = no reduction observed
row,Substance,% Inhib
1,400307 (antisense e[5mC]*eG*dG*d[5mC]*d[5mC]*dG*d[5mC]*dT*dG*dA*d[5mC]*d[5mC]*eA*e[5mC]) [compound 400307],76%
2,400308 (antisense e[5mC]*e[5mC]*dG*dG*d[5mC]*d[5mC]*dG*d[5mC]*dT*dG*dA*d[5mC]*e[5mC]*eA) [compound 400308],55%
3,400309 (antisense e[5mC]*e[5mC]*d[5mC]*dG*dG*d[5mC]*d[5mC]*dG*d[5mC]*dT*dG*dA*e[5mC]*e[5mC]) [compound 400309],44%
